Experimental data reported in PMC7584369, “Di-bromo-Based Small-Molecule Inhibitors of the PD-1/PD-L1 Immune Checkpoint” (Journal of Medicinal Chemistry, 2020).
“And” between values parts separate entries of the source, which are not always exact repeats. Equal entries are not always repeated. “Also recorded” adds a separate entry of the source.

Legend:
N66A-PD-1/PD-L1 complex = molecular target: T1, N66A-PD-1/PD-L1 complex (Homo sapiens, UniProt Q9NZQ7); test: w-AIDA-NMR (weak antagonist-induced dissociation assay); type: binding; details: equimolar concentrations
T1 construct: hPD-L1 residues, 18–134, C-terminal His-tag; His-tag (C); made in house; host or cells: Escherichia coli BL21 (DE3)
T1 sequence (Q9NZQ7 18-134, stated change not applied, one chain of several): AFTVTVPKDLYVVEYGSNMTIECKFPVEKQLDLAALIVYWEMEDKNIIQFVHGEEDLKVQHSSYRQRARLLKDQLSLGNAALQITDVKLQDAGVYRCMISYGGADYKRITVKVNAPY
Source text: Because HTRF is prone to “false positives”, especially aggregators and autofluorophores, we validated the results using the w-AIDA-NMR assay developed by us. […] In the w-AIDA-NMR 2D experiment, ^15N mutated PD-1 gives a characteristic pattern of peaks (Figure 2A). Peak assignment is not necessary as we observe a relative change in the intensity and positions of the reference peaks upon the addition of ligand/inhibitors. Upon the formation of the complex with PD-L1, most of the cross-peaks in the ^1H–^15N HMQC spectrum of PD-1 became broader and less intense with some of the cross-peaks disappearing (Figure 2B). If the inhibitor is capable of disrupting the complex, the resulting spectrum should come back to the reference one of PD-1 alone, as tested inhibitors are PD-L1 binders. […]
Uniform ^15N labeling was obtained by expressing proteins in the M9 minimal medium containing ^15NH4Cl as the sole nitrogen source. […] All spectra were recorded at 300 K using a Bruker Avance III 600 MHz spectrometer equipped with the nitrogen cryoprobe. The ability of tested compounds to dissociate PD-L1/(wild type, wt or N66A)PD-1 was evaluated using the (weak) antagonist-induced dissociation assay (w-AIDA-NMR). […] During the experiment, the ^1H–^15N signals were monitored by SOFAST HMQC.

wtPD-1/PD-L1 complex = molecular target: T2, wtPD-1/PD-L1 complex (Homo sapiens, UniProt Q9NZQ7); test: AIDA-NMR with wild-type proteins; type: binding; details: wild-type PD-1
T2 construct: hPD-L1 residues, 18–134, C-terminal His-tag; His-tag (C); made in house; host or cells: Escherichia coli BL21 (DE3)
T2 sequence (Q9NZQ7 18-134, one chain of several): as the sequence (Q9NZQ7 18-134, stated change not applied, one chain of several) above

murine PD-L1 = molecular target: T3, murine PD-L1 (Mus musculus, UniProt Q9EP73); test: MicroScale Thermophoresis (MST) binding assay, murine PD-L1; details: mPD-L1
T3 construct: mPD-L1 residues, 19–134; made in house; host or cells: Escherichia coli BL21 (DE3)
T3 sequence (Q9EP73 19-134): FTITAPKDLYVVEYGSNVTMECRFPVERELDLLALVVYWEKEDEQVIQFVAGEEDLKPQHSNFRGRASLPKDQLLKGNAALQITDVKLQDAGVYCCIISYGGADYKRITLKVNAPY

[1] = molecular target: T4, PD-1/PD-L1 complex (hPD-L1 and hPD-1) (Homo sapiens, UniProt Q9NZQ7); test: Homogeneous time-resolved fluorescence (HTRF) assay, Cis-Bio kit; type: binding
T4 construct: purchased Cis-Bio
T4 sequence (Q9NZQ7 19-238 limits assumed, one chain of several): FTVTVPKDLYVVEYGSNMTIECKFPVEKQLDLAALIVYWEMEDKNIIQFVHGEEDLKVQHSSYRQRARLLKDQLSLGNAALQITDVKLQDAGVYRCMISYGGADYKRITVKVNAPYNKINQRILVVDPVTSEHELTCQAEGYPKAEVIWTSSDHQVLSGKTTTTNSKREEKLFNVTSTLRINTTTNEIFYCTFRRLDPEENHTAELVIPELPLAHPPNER

[2] = molecular target: T5, hPD-1/hPD-L1 immune checkpoint (hPD-L1 aAPCs and Jurkat hPD-1 effector cells) (Homo sapiens, UniProt Q9NZQ7); test: hPD-1/hPD-L1 immune checkpoint blockade cell-based assay (Promega Blockade Bioassay)
T5 construct: host or cells: CHO K-1 (hPD-L1 aAPCs) and Jurkat T cells (hPD-1 effector cells)
T5 sequence (Q9NZQ7 19-290): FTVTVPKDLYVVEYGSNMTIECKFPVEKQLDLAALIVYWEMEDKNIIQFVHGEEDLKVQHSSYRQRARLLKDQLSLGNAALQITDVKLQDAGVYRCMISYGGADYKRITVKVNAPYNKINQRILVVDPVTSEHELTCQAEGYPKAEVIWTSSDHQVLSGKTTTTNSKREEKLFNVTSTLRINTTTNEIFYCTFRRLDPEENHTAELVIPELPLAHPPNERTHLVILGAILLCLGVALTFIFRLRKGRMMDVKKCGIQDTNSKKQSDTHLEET

human PD-L1 [3] = molecular target: T6, human PD-L1 (Homo sapiens, UniProt Q9NZQ7); test: MicroScale Thermophoresis (MST) binding assay, human PD-L1; details: hPD-L1
T6 construct: hPD-L1 residues, 18–134, C-terminal His-tag; His-tag (C); made in house; host or cells: Escherichia coli BL21 (DE3)
T6 sequence (Q9NZQ7 18-134): as the sequence (Q9NZQ7 18-134, stated change not applied, one chain of several) above

primary human T cells = test: Flow cytometry of activation markers on primary T cells (PBMCs on hPD-L1 aAPCs); type: cell-based; details: 48 h
Description: The biological activity of the compound 2k was further verified on the primary T cells. For this, peripheral blood mononuclear cells (PBMCs) isolated from the blood of healthy donors were contacted with hPD-L1 aAPCs to provide TCR-mediated activation of T cells and the engagement of PD-1/PD-L1 immune checkpoint. The cells were then analyzed with flow cytometry following the gating for CD4^+ and CD8^+ T cells. The blockade of the PD-1/PD-L1 immune checkpoint was expected to increase the activation of T cells. In the experiment, atezolizumab and compound 2k were used. […] Because the prolonged activation of T cells leads to the increase of the expression of immune checkpoint molecules,[30] we have monitored the expression of PD-1 protein itself as an indicator of the late T cell activation and exhaustion. […] This confirms the bioactivity of the compound 2k in the context of primary T cells.
Blood samples from healthy donors were purchased from the Regional Center of Blood Donation and Blood Therapy in Krakow. PBMCs were isolated by a density gradient centrifugation using Pancoll human separating solutions (PAN-Biotech) and then resuspended in RPMI 1640 medium (Biowest) containing 10% FBS (Biowest).
PBMCs were added to the preseeded aAPCs at the density of 400 000 cells/well and incubated in the presence of compound 2k, DMSO, and with or without atezolizumab (5 μg/mL) as an anti-PD-L1 monoclonal antibody. After 48 h, cells were detached using TrypLe Select Enzyme (Thermo Fisher Scientific), collected into 5 mL round-bottom tubes, and washed with flow cytometry staining buffer (Thermo Fisher Scientific). For flow cytometry analysis, cells were stained using monoclonal antibodies: anti-CD69-APC, anti-CD4-FITC, anti-CD8-BV510, and anti-PD1-PECy7 (Becton Dickinson, BD). Following 20 min of incubation at room temperature, cells were washed, resuspended in PBS, and analyzed using a FACSCanto II flow cytometer (BD) and FACSDiva software (BD). The data analysis was carried out with FACSuite software (BD).

human PD-L1 [4] = molecular target: T6, human PD-L1; test: 1H NMR binding assay; details: molar ratio 1:1
Description: The direct binding of the most prominent compounds 2k and 3d to the human PD-L1 was also confirmed with a ^1H NMR method (Figure S3).
Figure S2 ELISA assay results.
High-binding 96 well plates (Thermo Scientific, cat. 439454) were coated with 1.2 μg/ml (50 μL/well) of Fc-tagged human PD-1 (Recepton Sp. z o.o., cat. R1-001-1) and incubated overnight at 4 ◦C. The plates were warmed to room temperature, washed with wash buffer (1 x PBS, 0.05% Tween 20, pH 7.4) and blocked with 1 % BSA in 1 x PBS, pH 7.4 for 2 h. Standard curve was generated with 0.02 – 50 ug/mL His- and Fc- tagged human PD-L1 (Recepton Sp. z o.o., cat. R1-002-1). […] The bound ligand was detected with the addition of 50 μL/well biotinylated Anty-His antibody (Southern Biotech, cat. 4603-08) followed by 1 h incubation, wash steps and addition of 50 μL/well streptavidin-HRP (Thermo Scientific, cat. 21126). […] The absorbance readings were made on Tecan Spark at the wavelength 450 nm and the reference wavelength 655 nm. IC50 was calculated based on the Δ((A450-A655) from sample – (A450-A655) from background) readings fitted in the plot using a Hill’s […]
For NMR measurements, the buffer was exchanged by gel filtration to PBS pH 7.4. […] All spectra were recorded at 300 K using a Bruker Avance III 600 MHz spectrometer. […]

[5] = tested on: Jurkat PD-1 Effector Cells alone or in co-culture with CHO K-1 PD-L1 aAPCs; test: Cytotoxicity / cell viability assay (tetrazolium reagent); type: cell-based; details: not toxic up to the stated final concentration
human PD-1/PD-L1 complex = molecular target: T7, human PD-1/PD-L1 complex (Homo sapiens, UniProt Q9NZQ7); test: Competitive ELISA; type: binding; details: dissociation of human PD-1/PD-L1 complex
T7 construct: Fc; purchased Recepton Sp. z o.o; R1-002-1 (PD-L1); R1-001-1 (PD-1)
T7 sequence (Q9NZQ7 19-238 limits assumed, one chain of several): as the sequence (Q9NZQ7 19-238 limits assumed, one chain of several) above

PD-L1 = details: several independent biophysical and cell-based assays; cited from earlier work

| Structure (SMILES) | dissociation of the mutant N66A-PD-1/PD-L1 complex (N66A-PD-1/PD-L1 complex) | dissociation of the wtPD-1/PD-L1 complex (wtPD-1/PD-L1 complex) | MST KD (murine PD-L1) | Kd (human PD-L1 [3]) | direct binding to hPD-L1 (1H NMR) (human PD-L1 [4]) | also measured |
| --- | --- | --- | --- | --- | --- | --- |
| BrCc1cccc(-c2ccccc2)c1Br [1a, 2-bromo-3-(bromomethyl)-1,1′-biphenyl] | capable of dissociating; also recorded: all PD-1 peaks are restored; also recorded: dissociated | not able to dissociate | – | – | – | – |
| OCc1cccc(-c2ccccc2)c1F [1c] | capable of dissociating; also recorded: all PD-1 peaks are restored; also recorded: dissociated | not potent enough to dissociate | – | – | – | – |
| CC(=O)NCCNCc1ccc(OCc2cccc(-c3ccccc3)c2Br)c(Br)c1 [2g, N-(2-((3-Bromo-4-((2-bromo-[1,1′-biphenyl]-3-yl)methoxy)benzyl)amino)ethyl)acetamide] | – | – | no activity | 3.17 nM and 3.2 nM | – | IC50 [1]: 12.2 ± 0.2 nM; toxicity of the compound observed above concentration ([2]; EC50 estimated on partial data because of it): above 10 μM; EC50 ([2]; cell based assay, Table S1): 6.7 ± 1.1 µM |
| O=C(O)[C@@H]1CCCCN1Cc1ccc(OCc2cccc(-c3ccccc3)c2Br)c(Br)c1 [2k, (S)-1-(3-Bromo-4-((2-bromo-[1,1′-biphenyl]-3-yl)methoxy)benzyl)piperidine-2-carboxylic Acid] | – | dissociated | no activity | 4.04 nM and 4 nM | caused flattening of 2D spectra characteristic for the dimerization; also recorded: caused a characteristic dimerization of hPD-L1 | expression of PD-1 receptor on the surface of CD4+ and CD8+ T cells (primary human T cells): significant increase; expression of early T-cell activation marker CD69 (primary human T cells): Neither of the two molecules was able to increase; level of the Jurkat T cell activation ([2]; at a 50 μM concentration): 2.1 fold; toxic concentration in cell viability assay [5]: > 100 µM; IC50 (human PD-1/PD-L1 complex): 1.47 ± 0.05 nM |
| N#Cc1cc(COc2cc(OCc3cccc(-c4ccccc4)c3Br)c(Cl)cc2CN2C[C@@H](O)C[C@H]2C(=O)O)ccn1 [3d] | – | – | – | – | caused flattening of 2D spectra characteristic for the dimerization; also recorded: caused a characteristic dimerization of hPD-L1 | solubility in DMSO/water conditions ([2]; disallowed data collection for the two highest concentrations): solubility problems |
| C[C@@H](O)[C@H](NC(=O)N[C@@H](CC(N)=O)c1nc([C@@H](N)CO)no1)C(=O)O [CA-170] | – | – | – | – | – | direct binding to PD-L1 (PD-L1): not a direct PD-L1-binder |
